How the values were obtained:
Type in all cases: cell-based
H1650 cells = assay: QRT-PCR assay for stem cell transcription factors; conditions: 72 hours
Protocol: (§1) Given the effects of HDAC11 inhibition on stem-like side population cells, the effects on the expression of stem cell transcription factors was determined using QRT-PCR. A549 or H1650 cells were plated in 60 mm cell culture dishes (120,000 cells). The next day, HDAC11 inhibitors were added at various concentrations and incubated for 72 hours. For the siRNA experiments, A549 cells were plated in 60 mm cell culture dishes (120,000 cells per dish). The siRNAs (Santa Cruz Biotechnologies sc-106896 or ThermoFisher Scientific Cat#4392420) were transfected at a concentration of 100 and 150 pmoles into cells using Oligofectamine reagent (Invitrogen) as per manufacturer's protocol. A non-targeting siRNA (Ambion AM4635) was used as a control for all the transfection experiments. The cells were harvested after 72 hours post transfection. At the end of the treatments, cells were scraped, lysed and total RNA was isolated by RNeasy miniprep kit from Qiagen following the manufacturer's protocol (RNeasy mini kit Cat No. 74104). 1 μg of RNA was converted into cDNA using iScript cDNA synthesis kit (BioRad) in a 20 μl total reaction volume. Levels of mRNA were further analyzed using quantitative real time-PCR (qRT-PCR) that was performed in CFX96 Real time system using BioRad iQ SYBR Green supermix. The reaction was set with 5 μl of SYBR Green, 1 μl of 1 μM Forward primer, 1 μl of 1 μM Reverse primer, 0.5 μl of cDNA and 4.5 μl of water in a total 12 μl reaction. Data was normalized using GAPDH as an internal control and fold change was calculated by 2^−Delta-DeltaCt method. First the Delta-Ct was calculated (Delta-Ct=Ct Gene−Ct GAPDH). Next Delta-Delta-Ct was calculated (Delta-Delta-Ct=Delta-Ct treatment−Delta-Ct control). Finally fold change was calculated by 2^−Delta-DeltaCt.

A549 cells [1] = assay: QRT-PCR assay for stem cell transcription factors; conditions: 72 hours
Protocol: as §1

Ba/F3 MPL W515L cells = assay: Cell proliferation assay (CCK8); conditions: Mus musculus, BaF3; Ba/F3 MPLW515L, 48h; read-out: IC50, inhibition of proliferation
Protocol: (§2) This example describes inhibition of in vitro cell proliferation with exemplary HDAC11 inhibitors. The effects of selective HDAC11 inhibitors on cell proliferation were measured in cell lines containing the MPN-associated mutations MPL W515L (Ba/F3 MPL W515L) and JAK2 V617F (Ba/F3 JAK2 V617F, HEL 92.1.7, SET-2). HEL 92.1.7 and SET-2 cells were purchased from the ATCC and DSMZ, respectively. Ba/F3 cells overexpressing either MPLW515L or JAK2V617F, which were cytokine independent, were generated by transforming Ba/F3 cells with retroviruses overexpressing either MPL W515L or JAK2V617F. For survival assays, cells were seeded in 96-well plates at the density of 0.1 million/ml with addition of indicated compounds and incubated at 37° C. for 48h. CCK8 solution (Dojindo, Rockville, Md.) was added and absorbance at 450 nm was measured after 3 hours of incubation. Readings were normalized to dimethylsulfoxide (DMSO)-treated wells.

Ba/F3 JAK2 V617F cells = assay: Cell proliferation assay (CCK8); conditions: Mus musculus, BaF3; Ba/F3 JAK2V617F, 48h; read-out: IC50, inhibition of proliferation
Protocol: as §2

[2] = system: NCI-H1650 side population (SP) stem-like cells; assay: Sphere formation assay with stem-like side population NSCLC cells; conditions: H1650 (EGFR mutation), 0.5-5.0 μM, Day 10
Protocol: (§3) In order to investigate the role of HDAC11 in the self-renewal of stem-like cancer cells, sphere formation assays were conducted with NSCLC side population (SP) stem-like cells. A549 and NCI-H1650 cells were obtained from the ATCC. Asynchronously growing A549 or NCI-H1650 cells were washed once with phosphate buffered saline (PBS) and harvested using Accutase solution (Sigma Aldrich) and resuspended in DMEM-F12K medium (Gibo, Life Technologies) with 2% fetal bovine serum (FBS) at 1×10^6 cells/ml density. The cells were incubated with 4 μg/ml of Hoechst 33342 dye (Life Technologies) for 90 min at 37° C. in the presence or absence of 1 μM Fumitremorgin C (Sigma-Aldrich) which was used as a control sample to set the gate during sorting. The Hoechst stained cells were sorted using the BD FACSAria cell sorter. The sorted SP cells were plated in 96-well ultra-low adherent plate (Corning Inc) at the cell density of 1000 cells/100 μl/well in stem cell selective medium (DMEM:F12K supplemented with N2 supplement, 10 ng/mL epidermal growth factor (EGF) and 10 ng/ml basic fibroblast growth factor (bFGF) (Sigma-Aldrich) at 37° C. for 7-10 days. The spheres were observed and acquired using EVOS FL microscope system (Life Technologies Inc., USA). The numbers of spheres greater than or equal to 50 μm were counted. To study the effect of the HDAC11 inhibitors, the appropriate concentrations of the compounds were added to the wells on Day 0 and Day 5 and the image acquisition and analysis of the spheres were performed on Day 10. The sphere formation assays were performed twice with triplicates of each treatment in every assay.

[3] = system: A549 side population (SP) stem-like cells; assay: as above; conditions: A549 (KRAS mutation), 0.5-5.0 μM, Day 10
Protocol: as §3

NCI-H2170 cells = assay: Cell proliferation assay with combination treatment (MTT); conditions: H2170, combination with GDC-0449 (Vismodegib) or BMS-833923, 96 hours
Protocol: (§4) Selective HDAC11 inhibitors may be useful in combination with other targeted agents, including Jak2 inhibitors and Smoothened inhibitors. The effect of combination with the Smoothened inhibitors GDC-0449 (Vismodegib) and BMS-833923 was tested in lung cancer cell lines. A549 and NCI-H2170 cells were obtained from the ATCC. H2170 is a squamous carcinoma cell line. Cell viability was assessed using MTT reagent (Thiazolyl Blue Tetrazolium Bromide) (Sigma-Aldrich). The cells were grown in 96-well plates at a density of 3000-5000 cells/well in triplicates. The HDAC11 inhibitors were added to the adherent cells at different concentrations and treatment was carried out for 96 hours. After treatments, the cells were incubated with the 1 mg/mL MTT reagent at 37° C. for 1 hour. The reaction was terminated with DMSO that solubilizes the formazan product formed. Absorbance at 590 nm was recorded in a plate reader.

A549 cells [4] = assay: as above; conditions: A549, combination with GDC-0449 (Vismodegib) or BMS-833923, 96 hours
Protocol: as §4

HEL 92.1.7 cells = assay: Cell proliferation assay (CCK8); conditions: 48h
Protocol: as §2

With `O=C(NO)c1cccc2c1C[C@]1(CCN(Cc3ccc(Cl)c(C(F)(F)F)c3)C1=O)C2` [HDTK054, (S)-1′-(4-chloro-3-(trifluoromethyl)benzyl)-N-hydroxy-2′-oxo-1,3-dihydrospiro[indene-2,3′-pyrrolidine]-4-carboxamide] the “expression of Gli1 (mRNA)” value (H1650 cells) was “decreased expression”, the “expression of Sox2 (mRNA)” value (H1650 cells) was “decreased expression” and the “expression of Yap1 (mRNA)” value (H1650 cells) was “decreased expression”. For the same compound, the “expression of Gli1 (mRNA)” value (A549 cells [1]) was “decreased expression”, the “expression of Sox2 (mRNA)” value (A549 cells [1]) was “decreased expression” and the “expression of Yap1 (mRNA)” value (A549 cells [1]) was “decreased expression”. The IC50 (Ba/F3 MPL W515L cells) was 1 to 10 µM, the IC50 (Ba/F3 JAK2 V617F cells) was 1 to 10 µM and the “growth of stem-like cancer cells (sphere formation)” value (“growth of stem-like cancer cells” for short) [2] was “prevented growth”. The “growth of stem-like cancer cells” value [3] was “prevented growth”, the “cell viability, combination with Smoothened inhibitors” value (NCI-H2170 cells) was “decreased cell viability” and the “cell viability, combination with Smoothened inhibitors” value (A549 cells [4]) was “decreased cell viability”.
`O=C(NO)c1cccc(Nc2nc3cc(Cl)c(Cl)cc3o2)c1` [HDTK010, 3-((5,6-dichlorobenzo[d]oxazol-2-yl)amino)-N-hydroxybenzamide] was tested, and the “expression of Gli1 (mRNA)” value (H1650 cells) was “decreased expression”, the “expression of Sox2 (mRNA)” value (H1650 cells) was “decreased expression” and the “expression of Yap1 (mRNA)” value (H1650 cells) was “decreased expression”. The “expression of Gli1 (mRNA)” value (A549 cells [1]) was “decreased expression”, the “expression of Sox2 (mRNA)” value (A549 cells [1]) was “decreased expression” and the “expression of Yap1 (mRNA)” value (A549 cells [1]) was “decreased expression”. The “growth of the HEL 92.1.7 cell line” value (HEL 92.1.7 cells) was “inhibited the growth”, the “growth of stem-like cancer cells” value [2] was “prevented growth” and the “growth of stem-like cancer cells” value [3] was “prevented growth”. For the same compound, the “cell viability, combination with Smoothened inhibitors” value (NCI-H2170 cells) was “decreased cell viability” and the “cell viability, combination with Smoothened inhibitors” value (A549 cells [4]) was “decreased cell viability”.

— US10538496B2, “Methods using HDAC11 inhibitors” (FORMA Therapeutics, Inc., priority 2016, dated 2020)
